Results on 20 compounds are retold here after patent US4820834A, “Benzodiazepine analogs” (priority 1987, dated 1989).

Read-outs that look alike come from different tables or passages of the source. Bounds are passed on as bounds.

For assay [1], the target named is T1, Gastrin receptor (gastric glands) (Cavia porcellus, UniProt H0VZC5).
T1 construct: The washed guinea pig gastric glands prepared as above were resuspended; from tissue; host or cells: guinea pig gastric mucosal glands (male Hartley)
T1 sequence (H0VZC5 1-426): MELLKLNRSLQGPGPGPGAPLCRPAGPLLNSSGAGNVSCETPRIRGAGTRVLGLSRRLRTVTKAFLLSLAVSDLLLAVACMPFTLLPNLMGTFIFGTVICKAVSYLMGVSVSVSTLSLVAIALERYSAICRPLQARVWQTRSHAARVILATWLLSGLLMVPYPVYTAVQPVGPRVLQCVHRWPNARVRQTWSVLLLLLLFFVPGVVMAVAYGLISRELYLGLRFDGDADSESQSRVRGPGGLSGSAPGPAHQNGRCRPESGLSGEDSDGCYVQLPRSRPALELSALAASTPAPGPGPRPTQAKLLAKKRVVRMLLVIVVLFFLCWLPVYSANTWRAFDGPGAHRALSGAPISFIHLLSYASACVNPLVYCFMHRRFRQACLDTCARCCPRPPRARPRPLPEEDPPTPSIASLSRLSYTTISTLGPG
As to the kind of experiment: Gastrin Receptor Binding in Guinea Pig Gastric Glands. Also on record: species or system guinea pig (male Hartley).

Another assay addresses T2, CCK receptor (pancreas) (Rattus norvegicus, UniProt P30551).
T2 construct: The whole pancreas was dissected free of fat tissue and was homogenized; from tissue; host or cells: rat pancreas membranes (Sprague-Dawley)
T2 sequence (P30551 1-444): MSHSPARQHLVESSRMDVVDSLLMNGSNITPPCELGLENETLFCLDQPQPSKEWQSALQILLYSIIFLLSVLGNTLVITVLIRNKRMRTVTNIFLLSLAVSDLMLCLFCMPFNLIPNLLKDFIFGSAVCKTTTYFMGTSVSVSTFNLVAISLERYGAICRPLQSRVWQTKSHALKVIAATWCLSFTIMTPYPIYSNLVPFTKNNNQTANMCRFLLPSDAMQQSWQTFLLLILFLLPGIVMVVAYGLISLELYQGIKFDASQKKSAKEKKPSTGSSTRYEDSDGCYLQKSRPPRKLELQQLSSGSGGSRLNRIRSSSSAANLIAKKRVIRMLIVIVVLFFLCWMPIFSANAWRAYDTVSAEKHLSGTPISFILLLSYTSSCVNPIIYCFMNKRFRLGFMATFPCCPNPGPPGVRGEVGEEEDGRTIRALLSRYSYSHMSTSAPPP
The assay can be described thus: CCK Receptor Binding (Pancreas): inhibition of ^125 I-CCK-33 binding. Further details: species or system Male Sprague-Dawley rats. The essentials:
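Bound ^125I-CCK-33 was counted in pellets after a 30 min, 37° C incubation followed by centrifugation. Membranes came from male Sprague-Dawley rat pancreas, assayed in Tris HCl pH 7.7 containing DTT, bacitracin, PMSF and o-phenanthroline. For Scatchard analysis, tracer was diluted with rising unlabelled CCK-33.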

Assay [2] addresses T3, CCK receptor (brain, cerebral cortex) (Cavia porcellus, UniProt H0VZC5).
T3 construct: Cerebral cortex was dissected and used as a receptor source; from tissue; host or cells: guinea pig cerebral cortex membranes (male Hartley)
T3 sequence (H0VZC5 1-426): T1 sequence (H0VZC5 1-426)
As to the kind of experiment: biochemical. The format is binding, Male Hartley guinea pigs. The essentials:
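Binding of [radiolabeled] CCK-33 measured by gamma counting of centrifuged pellets after 2 h at 25°C. Membranes came from guinea pig brain cortex, suspended in 10 mM HEPES, 5 mM MgCl2, 1 mM EGTA, 0.25 mg/ml bacitracin, 0.4% BSA.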

Where [3] appears, read: IC50 ^125 I-Gastrin Gastric Glands, 25° C., 30 minutes.
Setting [4] is: IC50 ^125 I-CCK Pancreas, rat pancreas membranes, ^125 I-CCK-33, 37° C., 30 minutes.
Setting [5] is: IC50 ^125 I-CCK Brain, guinea pig cerebral cortex, ^125 I-CCK-33, 25° C., 2 hours.
Setting [6] is: ^125 I-gastrin, 25° C., 30 minutes, read-out: IC50 ^125 I-Gastrin Gastric Glands.
[7] abbreviates: guinea pig cerebral cortex, ^125 I-CCK-33, 25° C., 2 hours; read-out: IC50 ^125 I-CCK Brain.
[8] abbreviates: rat pancreas membranes, ^125 I-CCK-33, 37° C., 30 minutes; read-out: IC50 ^125 I-CCK Pancreas.

In general, IC50 refers to the midpoint of a concentration-inhibition curve.

Consider `O=C(NC1N=C(c2ccccc2F)c2ccccc2NC1=S)c1ccc(Cl)cc1` (racemic) [Example 180, 1,3-Dihydro-5-(2-fluorophenyl)-3-(RS)-(4-chlorophenyl)carbonylamino-2H-1,4-benzodiazepin-2-thione], for which the results for the IC50 (in assay [1] (setting [3]); at CCK receptor (pancreas) (setting [4]); in assay [2] (setting [5])) were 11000 nM, 16 nM and greater than 100000 nM, respectively.

For `Cc1cccc2c1N(C)C(=O)C(NC(=O)c1cc3ccccc3[nH]1)N=C2c1ccccc1` (stereo not drawn) [Example 289, 3-N-(2,3-Dihydro-1,9-dimethyl-2-oxo-5-phenyl-1H-1,4-benzodiazepin-3-yl)-1H-indole-2-carboxamide], the half-inhibitory concentration (IC50) turned out to be 660 nM in assay [1] (setting [6]), 0.1 nM at CCK receptor (pancreas) (setting [4]) and 89 nM in assay [2] (setting [7]).

As to `CN1C(=O)C(NC(=O)c2ccc(Cl)cc2N)N=C(c2ccccc2)c2ccccc21` (stereo not drawn) [Example 196, 3-N-(2,3-Dihydro-1-methyl-2-oxo-5-phenyl-1H-1,4-benzodiazepine-3-yl)-2-amino-4-chlorobenzamide], the IC50 in assay [1] (setting [3]) was 1900 nM; at CCK receptor (pancreas) (setting [8]), 0.9 nM; in assay [2] (setting [5]), 2400 nM.

On to `O=C(CN1C(=O)C(NC(=O)OCc2ccccc2)N=C(c2ccccc2)c2ccccc21)NCc1ccccc1` (stereo not drawn) [Example 212, (2,3-Dihydro-2-oxo-1-(2-oxo-2-((phenylmethyl)amino)ethyl)-5-phenyl-1H-1,4-benzodiazepin-3-yl)-carbamic acid phenylmethyl ester], for which the IC50 turned out to be 600 nM in assay [1] (setting [6]), 1900 nM at CCK receptor (pancreas) (setting [4]) and 400 nM in assay [2] (setting [7]).

Regarding `COc1cccc(NC(=O)NC2N=C(c3ccccc3)c3ccccc3NC2=O)c1` (stereo not drawn) [Example 275, N-(2,3-Dihydro-2-oxo-5-phenyl-1H-1,4-benzodiazepin-3-yl)-N'-(3-methoxyphenyl)-urea], the half-maximal inhibitory concentration (IC50) came to 120 nM in assay [1] (setting [3]), 20 nM at CCK receptor (pancreas) (setting [4]) and 110 nM in assay [2] (setting [5]).

As for `O=C(Nc1ccc(Cl)cc1)NC1N=C(c2ccccc2)c2ccccc2N(CC(=O)N2CCCC2)C1=O` (stereo not drawn) [Example 236, 1-((3-((((4-Chlorophenyl)amino)carbonyl)amino)-2,3-dihydro-2-oxo-5-phenyl-1H-1,4-benzodiazepin-1-yl)acetyl)pyrrolidine], the IC50 in assay [1] (setting [6]) was found to be 0.5 nM; on CCK receptor (pancreas) (setting [8]), 520 nM; in assay [2] (setting [7]), 0.28 nM.

Turning to `CCOC(=O)C(C)N1C(=O)C(NC(=O)OCc2ccccc2)N=C(c2ccccc2)c2ccccc21` (stereo not drawn) [Example 241, 2,3-Dihydro-alpha-methyl-2-oxo-5-phenyl-3-((phenylmethoxy)carbonyl)amino-1H-1,4-benzodiazepine-1-acetic acid ethyl ester], the 50% inhibitory concentration (IC50) in assay [1] (setting [6]) amounted to 950 nM; on CCK receptor (pancreas) (setting [4]), 930 nM; in assay [2] (setting [7]), 1400 nM.

For `CN1C(=O)C(NC(=O)Nc2cccc3ccccc23)N=C(c2ccccc2)c2ccccc21` (stereo not drawn) [Example 273, N-(2,3-Dihydro-1-methyl-2-oxo-5-phenyl-1H-1,4-benzodiazepin-3-yl)-N'-1-naphthalenyl-urea], the IC50 amounted to 57 nM in assay [1] (setting [6]), 8.6 nM at CCK receptor (pancreas) (setting [4]) and 79 nM in assay [2] (setting [7]).

As to `COc1ccc(NC(=O)NC2N=C(c3ccccc3)c3ccccc3N(C)C2=O)cc1` (stereo not drawn) [Example 253, N-(2,3-Dihydro-1-methyl-2-oxo-5-phenyl-1H-1,4-benzodiazepin-3-yl)-N'-(4-methoxvphenyl)-urea], the IC50 in assay [1] (setting [3]) stood at 45 nM; at CCK receptor (pancreas) (setting [4]) it was 160 nM; in assay [2] (setting [5]) it was 20 nM.

With `CC(C)C[C@H]1N=C(c2ccccc2)c2cc(Cl)ccc2NC1=O` [Example 14, 7-Chloro-1,3-dihydro-3(R)-(2-methyl-1-propyl)-5-phenyl-2H-1,4-benzodiazepin-2-one], the IC50 came to 12000 nM in assay [1] (setting [3]), 42000 nM on CCK receptor (pancreas) (setting [4]) and 60000 nM in assay [2] (setting [5]).

Take `CN1C(=O)[C@@H](NC(=O)c2ccc(Br)cc2)N=C(c2ccccc2)c2ccccc21` [Example 92, 3(S)-(-)-1,3-Dihydro-3-(4-bromobenzoylamino)-1-methyl-5-phenyl-2H-1,4-benzodiazepin-2-one]: the concentration for half-maximal inhibition (IC50) in assay [1] (setting [6]) stood at 620 nM; on CCK receptor (pancreas) (setting [4]) it was 4.3 nM; in assay [2] (setting [5]), 1600 nM.

With `O=C(O)CCN1C(=O)[C@@H](Cc2c[nH]c3ccccc23)N=C(c2ccccc2F)c2ccccc21` [Example 103, (2-Carboxyethyl)-1,3-dihydro-5-(2-fluorophenyl)-3(R)-(3'-indolyl)methyl-2H-1,4-benzodiazepin-2-one], the IC50 in assay [1] (read-out: IC50 ^125 I-Gastrin Gastric Glands, 25° C., 30 minutes) is 5800 nM; on CCK receptor (pancreas) (read-out: IC50 ^125 I-CCK Pancreas; rat pancreas membranes, ^125 I-CCK-33, 37° C., 30 minutes), 1400 nM; in assay [2] (read-out: IC50 ^125 I-CCK Brain; guinea pig cerebral cortex, ^125 I-CCK-33, 25° C., 2 hours), 11000 nM.

Regarding `CN1C(=O)[C@@H](NC(=O)c2ccc(C#N)cc2)N=C(c2ccccc2F)c2ccccc21` [Example 162, 3(S)-(+)-3-(4-Cyanobenzoylamino)-1,3-dihydro-5-(2-fluorophenyl)-1-methyl-2H-1,4-benzodiazeoin-2-one], the values for the 50% inhibitory concentration (IC50) (in assay [1] (setting [6]); on CCK receptor (pancreas) (setting [8]); in assay [2] (setting [5])) were 9000 nM, 43 nM and 31000 nM, respectively.

In the case of `CN1C(=O)C(NC(=O)Nc2ccc(Cl)c(Cl)c2)N=C(c2ccccc2)c2ccccc21` (stereo not drawn) [Example 257, N-(3,4-Dichlorophenyl)-N'-(2,3-dihydro-1-methyl-2-oxo-5-phenyl-1H-1,4-benzodiazepin-3-yl)-urea], the figures for the half-inhibitory concentration (IC50) (in assay [1] (setting [3]); at CCK receptor (pancreas) (setting [8]); in assay [2] (setting [5])) were 48 nM, 26 nM and 67 nM, respectively.

Regarding `O=C(Nc1ccc(Cl)cc1)NC1N=C(c2ccccc2)c2ccccc2N(CC(=O)OCc2ccccc2)C1=O` (stereo not drawn) [Example 208, 3-((((4-Chlorophenyl)amino)carbonyl)amino)-2,3-dihydro-2-oxo-5-phenyl-1H-1,4-benzodiazepine-1-acetic acid phenylmethyl ester], the values for the 50% inhibitory concentration (IC50) (in assay [1] (setting [6]); at CCK receptor (pancreas) (setting [8]); in assay [2] (setting [7])) were 140 nM, 1300 nM and 44 nM, respectively.

Consider `COc1cccc(NC(=O)N[C@@H]2N=C(c3ccccc3)c3ccccc3N(C)C2=O)c1` [Example 266, (R)-N-(2,3-Dihydro-1-methyl-2-oxo-5-phenyl-1H-1,4-benzodiazepin-3-yl)-N'-(3-methoxyphenyl)-urea], for which the 50% inhibitory concentration (IC50) was found to be 1.3 nM in assay [1] (setting [6]), 600 nM at CCK receptor (pancreas) (setting [8]) and 2.2 nM in assay [2] (setting [5]).

In the case of `CN1C(=O)C(NC(=O)c2ccc(C(C)(C)C)cc2)N=C(c2ccccc2F)c2ccccc21` (stereo not drawn) [Example 226, 4-(1,1-Dimethylethyl)-N-(5-(2-fluorophenyl)-2,3-dihydro-1-methyl-2-oxo-1H-1,4-benzodiazepin-3-yl)-benzamide], the concentration for half-maximal inhibition (IC50) in assay [1] (setting [6]) is 6400 nM; at CCK receptor (pancreas) (setting [4]) it was less than 100 nM; in assay [2] (setting [7]), 2300 nM.

In the case of `Cc1ccc(C2=NC(NC(=O)c3cc4ccccc4[nH]3)C(=O)N(C)c3ccccc32)cc1` (stereo not drawn) [Example 291, 3-N-(2,3-Dihydro-1-methyl-2-oxo-5-(p-tolyl)-1H-1,4-benzodiazepin-3-yl)-1H-indole-2-carboxamide], the half-inhibitory concentration (IC50) in assay [1] (setting [6]) was 710 nM; on CCK receptor (pancreas) (setting [4]), 0.08 nM; in assay [2] (setting [7]), 380 nM.

With `COc1cccc(NC(=O)NC2N=C(c3ccccc3)c3ccccc3NC2=S)c1` (stereo not drawn) [Example 280, N-(2,3-Dihydro-5-phenyl-2-thioxo-1H-1,4-benzodiazepin-3-yl)-N'-(3-methoxyphenyl)-urea], the 50% inhibitory concentration (IC50) in assay [1] (setting [3]) was 250 nM; at CCK receptor (pancreas) (setting [4]) it was 15 nM; in assay [2] (setting [5]), 970 nM.

Take `CCOC(=O)CCN1C(=O)C(NC(=O)OCc2ccccc2)N=C(c2ccccc2)c2ccccc21` (stereo not drawn) [Example 229, 2,3-Dihydro-2-oxo-5-phenyl-3-(((phenylmethoxy)carbonyl)amino)-1H-1,4-benzodiazepine-1-propanoic acid ethyl ester]: the half-inhibitory concentration (IC50) in assay [1] (setting [6]) was 260 nM; on CCK receptor (pancreas) (setting [4]) it was 1200 nM; in assay [2] (setting [7]) it was 440 nM.
